Laboratory results taken from patent publication US4632922A, “Oxomorpholinyl dimer and rescue of anthracycline and mitomycin C damage” (The United States of America as represented by the …, priority 1985, dated 1986).

How the values were obtained:
[1] = Kinetic measurements of TM3 reactivity with anthracycline compounds in methanol solvent; details: reaction with TM3, 25° C.
Procedure: Kinetic measurements of TM3 reactivity
with anthracycline compounds at 25° C. in methanol solvent.

[2] = test system: DOX-induced injury; details: cited from earlier work; for reduction of size of ulceration: animal models
[3] = test system: swine skin; assay: Skin lesions after intradermal DOX in swine; assay type: in vivo, miniature white swine
Procedure: In order to produce anthracycline induced tissue damage, clinical grade doxorubicin (DOX) hydrochloride was obtained as a representative anthracycline chemical from the Drug Synthesis Branch, Developmental Therapeutics Program, National Cancer Institute. Each vial contained 10 mg DOX hydrochloride and 50 mg lactose which was reconstituted with 5.0 ml sterile 0.9% NaCl solution to give a final drug concentration of 2.0 mg/ml. DHM3 solution was prepared by dissolving 10 mg in ice-cold water which had been purged with N2 gas for 5 minutes. Dissolution was facilitated by brief sonication to give a final concentration of 10 mg/ml. The solution was kept cold (≈4° C.) and protected from air and light.
Female weanling miniature white swine weighing approximately 12 kg were obtained from the Veterinary Resources Branch, National Institutes of Health. The development of this strain of swine has been described previously (Sachs, et al., Transplantation 22:559-567, 1976). Each animal was housed in a 6×4 ft metabolic cage and was fed standard NIH show chow, 1.5 lbs twice daily.
DOX HCl (2.0 mg/ml) was administered intradermally (i.d.) with a 25 gauge needle inserted approximately 4 to 5 mm into the skin. Following the injection of 0.5, 0.75 or 1.0 ml (1.0, 1.5, or 2.0 mg, respectively) DOX solution, the syringe was removed from the hub leaving the needle in place. After the indicated time interval, 1.0 ml (10 mg) DHM3 was injected through the same needle and the needle was then removed. Control sites received 1.0 ml sterile water instead of DHM3. The injection sites were along the mid-lateral aspect of each side of the swine and were 4-5 cm apart (6-8 injection sites per side). One animal was used for a dose experiment where DOX, 0.5 ml/site was injected along one side and 1.0 ml/site was injected along the contralateral side. Fifteen minutes later, DHM3 or water was injected into alternating sites as described above. A second animal received DOX, 0.75 ml/site along both sides. DHM3 or water was injected into alternating sites at times varying from 5 to 120 minutes following DOX administration.
All lesions were measured by a single observer with metric calipers three times weekly for two weeks, followed by weekly measurements thereafter. The areas of skin ulceration and induration were estimated by the product of the cross perpendicular diameters. The total toxicity of DOX-induced skin ulceration was determined by calculating the area under the ulceration-time curve (AUC) in mm^2 -days.
In order to assess the extent of tissue injury following intradermal DOX or DHM3, incisional biopsies were performed on representative lesions 6 and 20 days following drug injection. These samples were placed in 10% buffered formalin and processed for examination by standard light microscopy (Pathco Inc., Potomac, MD.).

[4] = Solubility of 7-deoxydaunorubicinone in the aqueous reaction medium; assay type: physicochemical; details: water, pH8
[5] = Kinetics of reaction of DHM3 with daunorubicin in water solvent; details: over the first 85 sec, water, 10° C., ten-fold excess DHM3
Procedure: A test similar to that described for the same reaction in methanol solvent (vide supra) was run. Oxomorpholinyl dimer DHM3 (1.38 mg, 4.37×10^-3 mmol) was dissolved in 0.5 ml of oxygen-free methanol and quickly transferred without delay into one compartment of the cell. The solvent was promptly removed under vacuum. Daunorubicin hydrochloride ([…]) was dissolved in 100 ml of an aqueous solution of Tris (24.2 mg) and Tris hydrochloride (31.6 mg) and 2.6 ml of this solution (4.18×10^-4 mmol of 6) was introduced into the other compartment of the cell. The sample was freeze-thaw degassed over three cycles as described above, sealed, and placed in a thermostatted cell holder at 10.0±0.1° C. for about 20 min prior to mixing. Full spectra between 320 and 800 nm were recorded every 10 sec for the first 125 sec, and then every 20 sec. From the absorbance change at 620 nm over the first 85 sec (50% reaction of daunorubicin), a non-linear least-squares treatment gave a first order rate constant for bond homolysis of DHM3 (k1) equal to 6×10^-4 sec^-1 and a first order rate constant for destruction of 7 (k2) equal to 2×10^-2 sec^-1. Treatment of the data obtained in the 164-225 sec interval gave k2 =2.8×10^-2 sec^-1.
Thus, when a ten-fold excess of DHM3 is reacted with an oxygen-free 2×10^-4 M solution of 6 in buffered water (pH8) at 10° C., the absorbance of the solution at 618-620 nm, due to the tautomer 7, reaches its maximum after 125 sec and then decreases quickly, with an 80% decrease in 100 sec. Here again the formation and destruction of 7, as calculated from the data obtained in the first 85 sec of reaction, follows consecutive first order kinetics, first order in DHM3 and 7, with k1 =6×10^-4 sec^-1, k2 =2×10^-2 sec^-1 and ε7 =9600. Calculation of k2 from the absorbance data taken after 165 sec of reaction time, when only first order destruction of 7 is observed, gives a value of 2.8×10^-2 sec^-1.

For CC(=O)C1(O)Cc2c(O)c3c(c(O)c2C(OC2CC(N)C(O)C(C)O2)C1)C(=O)c1ccccc1C3=O (stereo not shown) [4-DEMETHOXYDAUNORUBICIN, 4-demethoxydaunorubicin], the “RATE CONSTANT k2” value [1] was 0.009 s⁻¹.
With CC[C@@]1(O)C[C@H](O[C@H]2C[C@H](N(C)C)[C@H](O[C@H]3C[C@H](O)[C@H](O[C@H]4CCC(=O)[C@H](C)O4)[C@H](C)O3)[C@H](C)O2)c2c(cc3c(c2O)C(=O)c2c(O)cccc2C3=O)[C@H]1C(=O)OC [ACLARUBICIN] the “RATE CONSTANT k2” value [1] was 0.0009 s⁻¹.
In the case of COc1cccc2c1C(=O)c1c(O)c3c(c(O)c1C2=O)C[C@@](O)(C(=O)CO)C[C@@H]3O[C@H]1C[C@H](N)[C@H](O)[C@H](C)O1 [DOX, doxorubicin], the “RATE CONSTANT k2” value [1] is given as 0.011 s⁻¹, the “ulcer following DOX, compared with present results” value ([2]; 2 mg/site i.d., swine, Okano et al. 1983) is given as “smaller and more variable ulcer” and the “dose dependence of skin ulceration size” value ([3]; DOX 0.5 to 1.0 ml (2.0 mg/ml) i.d.) is given as “linearly dependent on the dose”. For the same molecule, the “start of ulcer formation following DOX” value ([3]; DOX i.d.) was 7 to 8 days, the “time to complete healing of ulcer” value ([3]; DOX i.d.) was no more than 7 weeks and the “time to maximal ulcer size following DOX” value ([3]; DOX i.d.) was 3 weeks. For the same molecule, the “microscopic appearance of lesions” value ([3]; DOX i.d., biopsy) was “extensive coagulation-type necrosis of epidermis, dermis, and subcutaneous tissue, including muscle”.
In the case of CO[C@@H]1C[C@](C)(O)Cc2cc3c(c(O)c21)C(=O)c1c(O)cc2c(c1C3=O)O[C@@H]1O[C@@]2(C)[C@H](O)[C@@H](N(C)C)[C@@H]1O [MENOGARIL], the “RATE CONSTANT k2” value [1] is reported as 0.0025 s⁻¹.
For Cc1c(C)c2c(c(C)c1O)CCC(C)(CCCC(C)CCCC(C)CCCC(C)C)O2 (stereo not drawn) [alpha-tocopherol], the “reduction of size of ulceration” value [2] is given as “purported to reduce the size of ulceration in some animal models but not in all”.
In the case of COc1cccc2c1C(=O)c1c(O)c3c(c(O)c1C2=O)CC(O)(C(C)=O)CC3 (stereo not shown) [compound 8, 7-deoxydaunorubicinone], the solubility [4] is reported as “sparingly soluble”.
For COc1cccc2c1C(=O)c1c(O)c3c(c(O)c1C2=O)C[C@@](O)(C(C)=O)C[C@@H]3O[C@H]1C[C@H](N)[C@H](O)[C@H](C)O1 [daunorubicin, reference compound], the “RATE CONSTANT k2” value [1] was 0.013 s⁻¹ and the reaction of daunorubicin [5] was 50%.
In the case of C[S+](C)[O-] [dimethyl sulfoxide], the “reduction of size of ulceration” value [2] is listed as “purported to reduce the size of ulceration in some animal models but not in all” and the “severity of DOX-induced injury” value ([2]; swine model, Okano et al. 1983) is listed as “appeared to ameliorate the severity of injury”.
